Consider 56 compounds from publication PMC9045277, “Quercetin Reduces the Virulence of S. aureus by Targeting ClpP to Protect Mice from MRSA-Induced Lethal Pneumonia” (Microbiology Spectrum, 2022).
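Also: ClpP peptidase activity measured as fluorescence (ex 360 nm, em 465 nm) from cleavage of Suc-LY-AMC substrate at 100 µM, 30 min at 32°C.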

The target of the experiment is T1, ClpP (Staphylococcus aureus, UniProt Q2G036).
T1 construct: pET28a-clpP, purified from E. coli BL21(DE3)
T1 sequence (Q2G036 whole entry): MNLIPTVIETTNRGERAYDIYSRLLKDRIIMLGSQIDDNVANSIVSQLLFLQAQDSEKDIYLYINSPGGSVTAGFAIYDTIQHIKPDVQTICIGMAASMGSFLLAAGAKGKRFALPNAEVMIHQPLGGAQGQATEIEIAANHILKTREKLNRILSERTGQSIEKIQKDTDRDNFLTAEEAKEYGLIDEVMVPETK
Nature of the experiment: biochemical. Particulars: read-out: Relative inhibition rate (%).
Protocol: This property was exploited to screen the available laboratory library of small molecules for ClpP inhibitors. First, 10 μM ClpP and 64 μg/mL of the small molecule compound were added to a black opaque 96-well plate containing 100 μL of ClpP buffer (100 mM HEPES,100 mM NaCl) and incubated for 1 h at room temperature. Afterward, 100 μM Suc-LeuTyr-AMC (Cat number S1153, Sigma-Aldrich, St. Louis, MO, USA) was added to 96-well plates and incubated for 30 min at 32°C. Finally, the fluorescence values were detected by Infinite M200 (360 nm excitation/465 nm emission). […] Since the fluorescent substrate Suc-LY-AMC can be used to detect the activity of ClpP protein, we screened a library of natural products available in our laboratory.
In the case of `O=C1O[C@H]2[C@@H]3OC(=O)c4cc(O)c(O)c(O)c4-c4c(O)c(O)c5oc(=O)c6c(c(O)c(O)c7oc(=O)c4c5c76)-c4c(cc(O)c(O)c4O)C(=O)OC[C@H]3OC(O)[C@@H]2OC(=O)c2cc(O)c(O)c(O)c2-c2c1cc(O)c(O)c2O` (mixture of isomers) [Punicalagin], the inhibition at 64 µg/mL was determined as 28.3 ± 3.67%. Next, `COc1ccc(-c2cc(=O)c3c(O)c(OC)c(OC)cc3o2)cc1O` [3',5-Dihydroxy-4',6,7-trimethoxyflavone]: 55.8 ± 2.5%; `O=c1ccc2cc(O)c(O)cc2o1` [6,7-Dihydroxycoumarin]: 19.6 ± 3.54%; `CC1=CC(=O)CC(C)(C)[C@@]1(O)/C=C/C(C)=C\C(=O)O` [Abscisic acid]: 0.8 ± 3.42%.

With `O=C1c2ccccc2C(=O)c2c1ccc(O)c2O` [Alizarin], the inhibition at 64 µg/mL was determined as 56.6 ± 5.28%. The same measure for `C=C1CC[C@@H]2[C@](C)(CO)[C@H](O)CC[C@@]2(C)[C@@H]1C/C=C1/C(=O)OC[C@H]1O` [Andrographolide]: 15.8 ± 0.72%; for `COc1ccc(-c2cc(=O)c3c(O)cc(OC)cc3o2)cc1` [Apigenin 7,4'-dimethyl ether]: 18.4 ± 1.24%. Next, `O=c1cc(-c2ccc(O)cc2)oc2cc(O)cc(O)c12` [Apigenin]: 13.6 ± 0.52%. The same measure for `C[C@@H]1CC[C@H]2[C@@H](C)C(=O)O[C@@H]3O[C@@]4(C)CC[C@@H]1[C@]32OO4` [Artemisinin]: 4.9 ± 4.21%. In the case of `CC(=O)OCC1=C[C@@H]2OC(=O)C3=CO[C@@H](O[C@@H]4O[C@H](CO)[C@@H](O)[C@H](O)[C@H]4O)[C@H]1[C@@H]32` [Asperuloside], the inhibition at 64 µg/mL came out at 17.4 ± 2.31%. Take `C[C@@H]1O[C@@H](O[C@H]2C(=O)c3c(O)cc(O)cc3O[C@@H]2c2ccc(O)c(O)c2)[C@H](O)[C@H](O)[C@H]1O` [Astilbin]: the inhibition at 64 µg/mL was determined as 9.1 ± 2.73%. For the compound `O=c1c(O[C@@H]2O[C@H](CO)[C@@H](O)[C@H](O)[C@H]2O)c(-c2ccc(O)cc2)oc2cc(O)cc(O)c12` [Astragalin], the inhibition at 64 µg/mL is 51.3 ± 1.73%. As to `O=c1c(O[C@@H]2O[C@@H](CO)[C@H](O)[C@H]2O)c(-c2ccc(O)c(O)c2)oc2cc(O)cc(O)c12` [Avicularin], the inhibition at 64 µg/mL came to 46 ± 1.22%. The same measure for `CC(=O)O[C@H]1C(=O)[C@@]2(C)[C@H]([C@H](OC(=O)c3ccccc3)[C@]3(O)C[C@H](O)C(C)=C1C3(C)C)[C@]1(OC(C)=O)CO[C@@H]1C[C@@H]2O` [Baccatin III]: 7.2 ± 3.26%. `O=C(O)[C@H]1O[C@@H](Oc2cc3oc(-c4ccccc4)cc(=O)c3c(O)c2O)[C@H](O)[C@@H](O)[C@@H]1O` [Baicalin]: the inhibition at 64 µg/mL is 27.3 ± 0.55%. Next, `O=c1c(O[C@@H]2O[C@H](CO)[C@@H](O)[C@H](O)[C@H]2O[C@@H]2O[C@H](CO)[C@@H](O)[C@H](O)[C@H]2O)c(-c2ccc(O)c(O)c2)oc2cc(O)cc(O)c12` [Baimaside]: 25.1 ± 0.69%; `COc1ccc(-c2oc3c(CC=C(C)C)c(O)cc(O)c3c(=O)c2O[C@@H]2O[C@@H](C)[C@H](O)[C@@H](O)[C@H]2O)cc1` [Baohuoside I]: 37.1 ± 0.59%. For `CC(C)=CCc1cc2c(cc1O)O[C@H](c1ccc(O)cc1)CC2=O` [Bavachin], the inhibition at 64 µg/mL came out at 21.7 ± 1.75%. Next, `CC(C)(C)[C@]1(O)C[C@@H]2OC(=O)C[C@@]23C(=O)O[C@@H]2OC(=O)[C@H](O)[C@]213` [Bilobalide]: 17.4 ± 1.76%; `COc1ccc(-c2coc3cc(O)cc(O)c3c2=O)cc1` [Biochanin A]: 28.2 ± 1.38%; `Oc1ccc2c(c1)OC[C@]1(O)Cc3cc(O)c(O)cc3[C@H]21` [Brazilin]: 47.2 ± 2.57%. Next, `COC(=O)[C@@]12OC[C@]34[C@H]([C@@H](O)[C@@H]1O)[C@@]1(C)CC(=O)C(O)=C(C)[C@@H]1C[C@H]3OC(=O)[C@H](OC(C)=O)[C@@H]24` [Bruceine B]: 1.6 ± 2.71%; `COc1ccc(-c2cc(=O)c3c(O)cc(O[C@@H]4O[C@H](CO[C@@H]5O[C@@H](C)[C@H](O)[C@@H](O)[C@H]5O)[C@@H](O)[C@H](O)[C@H]4O)cc3o2)cc1` [Buddleoside]: 46.2 ± 1.25%.

Regarding `COc1ccc(-c2coc3cc(O[C@@H]4O[C@H](CO)[C@@H](O)[C@H](O)[C@H]4O)ccc3c2=O)cc1O` [Calycosin-7-glucoside], the inhibition at 64 µg/mL came out at 4.2 ± 0.84%.

On to `COc1ccc(-c2oc3cc(OC)c(OC)c(O)c3c(=O)c2OC)cc1O` [Casticin], for which the inhibition at 64 µg/mL was determined as 56.8 ± 1.22%. For the compound `CCC1=C[C@@H]2CN3CCc4c([nH]c5ccccc45)[C@@](C(=O)OC)(C2)[C@@H]13` [Catharanthine], the inhibition at 64 µg/mL is 10.3 ± 1.62%. Consider `O=C(/C=C/c1ccc(O)c(O)c1)O[C@@H]1C[C@](O)(C(=O)O)C[C@@H](O)[C@H]1O` [Chlorogenic acid], for which the inhibition at 64 µg/mL is 10.4 ± 1.12%. Take `O=c1cc(-c2ccccc2)oc2cc(O)cc(O)c12` [Chrysin]: the inhibition at 64 µg/mL was 49 ± 3.18%. The same measure for `COc1cc(-c2oc3cc(OC)c(OC)c(O)c3c(=O)c2OC)ccc1O` [Chrysosplenetin]: 52.4 ± 0.36%; for `CC1(C)CCC2(CO)C(=C3C=CC4C5(C)CCC(OC6OC(COC7OC(CO)C(O)C(O)C7O)C(OC7OC(CO)C(O)C(O)C7O)C(O)C6O)CC5C(C)(CO)CC4(C)C3(C)CC2O)C1` (centres unmarked) [Clinodiside A]: 16 ± 2.78%; for `COc1cc(O)c2c(=O)c(O[C@@H]3O[C@H](CO)[C@@H](O)[C@H](O)[C@H]3O)c(-c3ccc(O[C@@H]4O[C@H](CO)[C@@H](O)[C@H](O)[C@H]4O)cc3)oc2c1` [Complanatuside]: 12.3 ± 0.47%. `Nc1[nH]c(=O)nc2c1ncn2[C@@H]1O[C@H](CO)[C@@H](O)[C@H]1O` [Crotonoside]: the inhibition at 64 µg/mL stood at 28.1 ± 3.17%. Next, `O=C(/C=C/c1ccc(O)c(O)c1)O[C@H]1[C@H](O)C[C@](O)(C(=O)O)C[C@H]1O` [Cryptochlorogenic acid]: 13.7 ± 3.15%.

As for `C[C@@H]1C(=O)O[C@H](C)[C@H]1C[C@@H](O)[C@](C)(O)[C@H]1CC[C@@]2(O)C3=CC(=O)[C@@H]4C[C@@H](O)[C@@H](O)C[C@]4(C)[C@H]3CC[C@]12C` [Cyasterone], the inhibition at 64 µg/mL turned out to be 25.6 ± 2.65%. Next, `C/C=C/c1cc(OC)c2c(c1)C(C)C(c1ccc(O)c(OC)c1)O2` (centres unmarked) [Dehydrodiisoeugenol]: 5.3 ± 0.61%; `COc1ccc([C@@H]2CC(=O)c3c(O)cc(O[C@@H]4O[C@H](CO[C@@H]5O[C@@H](C)[C@H](O)[C@@H](O)[C@H]5O)[C@@H](O)[C@H](O)[C@H]4O)cc3O2)cc1` [Didymin]: 31.2 ± 0.59%. The same measure for `COc1ccc(-c2cc(=O)c3c(O)cc(O)cc3o2)cc1O` [Diosmetin]: 6.1 ± 1.68%; for `COc1ccc(-c2cc(=O)c3c(O)cc(O[C@@H]4O[C@H](CO[C@@H]5O[C@@H](C)[C@H](O)[C@@H](O)[C@H]5O)[C@@H](O)[C@H](O)[C@H]4O)cc3o2)cc1O` [Diosmin]: 31.7 ± 0.92%; for `COc1ccc(-c2oc3c(CC=C(C)C)c(O[C@@H]4O[C@H](CO)[C@@H](O)[C@H](O)[C@H]4O)cc(O)c3c(=O)c2O[C@@H]2O[C@@H](C)[C@H](O)[C@@H](O[C@@H]3O[C@H](CO)[C@@H](O)[C@H](O)[C@H]3O)[C@H]2O)cc1` [Epimedin A1]: 26.7 ± 0.81%. In the case of `COc1ccc(-c2oc3c(CC=C(C)C)c(O[C@@H]4O[C@H](CO)[C@@H](O)[C@H](O)[C@H]4O)cc(O)c3c(=O)c2O[C@@H]2O[C@@H](C)[C@H](O)[C@@H](O)[C@H]2O[C@@H]2OC[C@@H](O)[C@H](O)[C@H]2O)cc1` [Epimedin B], the inhibition at 64 µg/mL came to 29.1 ± 2.01%. In the case of `Cc1c(O)c(C)c2c(c1O)C(=O)C[C@@H](c1ccc(O)cc1)O2` [Farrerol], the inhibition at 64 µg/mL was 33.5 ± 0.73%.

In the case of `COc1ccc(/C=C/C(=O)c2c(O)cc(OC)cc2OC)cc1` [Flavokawain A], the inhibition at 64 µg/mL worked out at 2.6 ± 1.17%. Next, `COc1cc2ccc(=O)oc2c(O)c1O` [Fraxetin]: 50.3 ± 4.62%; `O=c1c(-c2ccc(O)cc2)coc2cc(O)cc(O)c12` [Genistein]: 33.5 ± 0.65%. The same measure for `O=c1c(-c2ccc(O)cc2)coc2cc(O[C@@H]3O[C@H](CO)[C@@H](O)[C@H](O)[C@H]3O)cc(O)c12` [Genistin]: 22.1 ± 0.63%. Next, `COc1cc(O)c2c(=O)cc(-c3ccc(O)cc3)oc2c1` [Genkwanin]: 13.7 ± 0.58%; `COc1cc2c(=O)c(-c3ccc(O)cc3)coc2cc1O[C@@H]1O[C@H](CO)[C@@H](O)[C@H](O)[C@H]1O` [Glycitin]: 18.5 ± 1.26%.

On to `O=Cc1ccc(O[C@@H]2O[C@H](CO)[C@@H](O)[C@@H](O)[C@H]2O)cc1` [Helicid], for which the inhibition at 64 µg/mL is 13.9 ± 3.22%. Take `Oc1cc2c(cc1O)[C@@H]1c3ccc(O)c(O)c3OC[C@]1(O)C2` [Hematoxylin]: the inhibition at 64 µg/mL came to 23.9 ± 2.69%.

As to `O=C1C([C@@H]2O[C@H](CO)[C@@H](O)[C@H](O)[C@H]2O)=C(O)/C(=C(O)/C=C/c2ccc(O)cc2)C(=O)C1(O)[C@@H]1O[C@H](CO)[C@@H](O)[C@H](O)[C@H]1O` (some centres unmarked) [Hydroxysafflor yellow A], the inhibition at 64 µg/mL was 52.4 ± 4.23%. The same measure for `COc1ccc(-c2oc3c(CC=C(C)C)c(O[C@@H]4O[C@H](CO)[C@@H](O)[C@H](O)[C@H]4O)cc(O)c3c(=O)c2O[C@@H]2O[C@@H](C)[C@H](O)[C@@H](O)[C@H]2O)cc1` [Icariin]: 34.6 ± 1.54%; for `COc1cc(-c2coc3cc(O[C@@H]4O[C@H](CO)[C@@H](O)[C@H](O)[C@H]4O)c(OC)c(O)c3c2=O)cc(O)c1OC` [Iridin]: 14.2 ± 1.39%; for `O=c1c(-c2ccccc2)coc2ccccc12` [Isoflavone]: 20.1 ± 0.73%. Next, `O=c1cc(-c2ccc(O)c(O)c2)oc2cc(O)c([C@@H]3O[C@H](CO)[C@@H](O)[C@H](O)[C@H]3O)c(O)c12` [Isoorientin]: 50.2 ± 1.58%; `COc1ccc(C(=O)O)cc1O` [Isovanillic acid]: 13.7 ± 2.43%; `O=c1c(O)c(-c2ccc(O)cc2)oc2cc(O)cc(O)c12` [Kaempferol]: 44 ± 2.75%.
